Data set [1] in a line: Cytotoxicity against uninfected human C8166 cells by XTT-formazan method. It counts as cell-based. The following applies: read-out: TC50 (the source's name).
Data set [2] has as its system Human immunodeficiency virus 1. As to the kind of experiment: Antiviral activity against HIV1 3B infected in human C8166 cells assessed as syncytia formation at 5 fold EC50 preincubated for 5 to 6 days before infection measured after 2 days postinfection by XTT-formazan method. The class given is functional, organism-based.
Data set [3] relates to Human immunodeficiency virus 1. The data set can be described thus: Antiviral activity against HIV1 MN infected in human C8166 cells assessed as reduction in antigen gp120 production by ELISA. The class given is functional, organism-based. The following applies: Human immunodeficiency virus 1, MN.
Data set [4] is described as follows: Selectivity index, ratio of TC50 for uninfected human C8166 cells to EC50 for HIV1 MN infected in human C8166 cells. The class given is toxicity, cell-based. Conditions: uninfected C8166 cells and HIV-1 MN-infected C8166 cells, read-out: Selectivity Index.

Converted amounts (≈) assume the structure as drawn. The source made the active and inactive calls. The rule behind the calls is not given here.

For `COc1cc(O[C@@H]2O[C@H](CO[C@@H]3OC[C@H](O)[C@H](O)[C@H]3O)[C@@H](O)[C@H](O)[C@H]2O)c2c(O)c3c(=O)oc(C)cc3c(OC)c2c1`, in data set [1], the CC50 was 160 mg/L (≈ 268 µM). For the same compound, the outcome in data set [2] was inactive. Moreover, the concentration for a half-maximal effect (EC50) in data set [3] is 18 mg/L (≈ 30.2 µM). Also, the selectivity ratio in data set [4] amounted to 8.9.
For `COc1cc(O[C@@H]2O[C@H](CO)[C@@H](O)[C@H](O)[C@H]2O)c2c(O)c3c(=O)oc(C)cc3c(OC)c2c1`, in that order: 160 mg/L (≈ 345 µM), “inactive”, 38 mg/L (≈ 81.8 µM) and 4.2.
For `COc1cc(O[C@@H]2O[C@H](CO[C@@H]3O[C@@H](C)[C@H](O)[C@@H](O)[C@H]3O)[C@@H](O)[C@H](O)[C@H]2O)c2c(O)c3c(=O)oc(C)cc3c(OC)c2c1`, in that order: 100 mg/L (≈ 164 µM), “inactive”, 30 mg/L (≈ 49.1 µM) and 3.3.
As for `Cc1cn([C@H]2C[C@H](N=[N+]=[N-])[C@@H](CO)O2)c(=O)[nH]c1=O` [ZIDOVUDINE], the CC50 in data set [1] was > 1000 mg/L. The EC50 in data set [3] worked out at 0.016 mg/L (≈ 0.0599 µM).
For `COc1cc(O[C@@H]2O[C@H](CO[C@@H]3O[C@H](CO)[C@@H](O)[C@H](O)[C@H]3O)[C@@H](O)[C@H](O)[C@H]2O)c2c(O)c3c(=O)oc(C)cc3c(OC)c2c1`, the CC50 in data set [1] came out at 150 mg/L (≈ 239 µM). Further, the outcome in data set [2] was inactive. For the same compound, the EC50 in data set [3] was determined as 75 mg/L (≈ 120 µM). The selectivity ratio in data set [4] was 2.

(Values after ChEMBL document CHEMBL1150851, “Naphthopyranone glycosides from Paepalanthus microphyllus” (J Nat Prod, 2001).)
